# Laboratory results taken from the supplement of paper PMC10307832.
# How the values were obtained:
# Assay in all cases: relative viability (nuclei count vs DMSO), 5 days (fraction); higher = more cells survive
# Carfilzomib + Lapatinib = compound: CC(C)C[C@H](NC(=O)[C@H](CCc1ccccc1)NC(=O)CN1CCOCC1)C(=O)N[C@@H](Cc1ccccc1)C(=O)N[C@@H](CC(C)C)C(=O)[C@@]1(C)CO1 [Carfilzomib] + CS(=O)(=O)CCNCc1ccc(-c2ccc3ncnc(Nc4ccc(OCc5cccc(F)c5)c(Cl)c4)c3c2)o1 [Lapatinib] (partner 2 µM)
# Outline: (§1)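 Relative viability is defined as nuclei in treated wells over nuclei in vehicle wells. Duplicate plates were run and medians reported. Lung cancer cell lines in 1536-well plates were dosed by pin tool one day after seeding, with one drug or with a fixed anchor-drug dose plus five library-drug doses (not always all listed) in √10 steps, and nuclei were counted after 5 days.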
# Carfilzomib + Alpelisib = compound: CC(C)C[C@H](NC(=O)[C@H](CCc1ccccc1)NC(=O)CN1CCOCC1)C(=O)N[C@@H](Cc1ccccc1)C(=O)N[C@@H](CC(C)C)C(=O)[C@@]1(C)CO1 [Carfilzomib] + Cc1nc(NC(=O)N2CCC[C@H]2C(N)=O)sc1-c1ccnc(C(C)(C)C(F)(F)F)c1 [Alpelisib] (partner 2 µM)
# Outline: as §1
# Olaparib + Phenformin = compound: O=C(c1cc(Cc2n[nH]c(=O)c3ccccc23)ccc1F)N1CCN(C(=O)C2CC2)CC1 [Olaparib] + N=C(N)NC(=N)NCCc1ccccc1 [Phenformin] (partner 250 µM)
# Outline: as §1
# Crizotinib + Tozasertib = compound: C[C@@H](Oc1cc(-c2cnn(C3CCNCC3)c2)cnc1N)c1c(Cl)ccc(F)c1Cl [Crizotinib] + Cc1cc(Nc2cc(N3CCN(C)CC3)nc(Sc3ccc(NC(=O)C4CC4)cc3)n2)n[nH]1 [Tozasertib] (partner 0.1 µM)
# Outline: as §1
Cell Line,relative viability (Carfilzomib + Lapatinib; first compound 0.001 µM),relative viability (Carfilzomib + Lapatinib; first compound 0.003162 µM),relative viability (Carfilzomib + Lapatinib; first compound 0.01 µM),relative viability (Carfilzomib + Lapatinib; first compound 0.03162 µM),relative viability (Carfilzomib + Lapatinib; first compound 0.1 µM),relative viability (Carfilzomib + Alpelisib; first compound 0.001 µM),relative viability (Carfilzomib + Alpelisib; first compound 0.003162 µM),relative viability (Carfilzomib + Alpelisib; first compound 0.01 µM),relative viability (Carfilzomib + Alpelisib; first compound 0.03162 µM),relative viability (Carfilzomib + Alpelisib; first compound 0.1 µM),relative viability (Olaparib + Phenformin; first compound 0.08 µM),relative viability (Olaparib + Phenformin; first compound 0.253 µM),relative viability (Olaparib + Phenformin; first compound 2.53 µM),relative viability (Olaparib + Phenformin; first compound 8 µM),relative viability (Crizotinib + Tozasertib; first compound 0.01 µM),relative viability (Crizotinib + Tozasertib; first compound 0.03162 µM),relative viability (Crizotinib + Tozasertib; first compound 0.1 µM),relative viability (Crizotinib + Tozasertib; first compound 0.3162 µM),relative viability (Crizotinib + Tozasertib; first compound 1 µM)
201T,1.02,0.961,1.05,1.04,0.88,0.986,1.05,0.983,1.07,0.893,0.396,0.465,0.481,0.43,0.924,0.947,0.921,0.927,0.978
A549,0.885,1.05,0.931,0.359,0.0624,0.652,0.754,0.755,0.0509,0.04,0.234,0.217,0.172,0.121,,,,,
A-427,0.925,1.09,1.09,0.972,0.157,1.07,1.07,1.06,0.699,0.1,0.461,0.259,0.258,0.241,0.17,0.199,0.215,,0.212
ABC-1,1.08,1.54,1.2,0.499,0.516,1.16,1.09,0.636,0.246,0.267,0.239,0.234,0.243,0.276,,0.196,0.16,0.177,0.186
BEN,0.635,0.819,0.854,0.553,0.267,1.04,1.22,1.12,0.83,0.499,,0.292,0.28,0.261,0.452,0.55,0.53,0.414,0.446
CAL-12T,,0.691,0.759,0.618,0.207,,1.38,1.3,0.619,0.105,0.715,0.497,0.539,0.558,0.331,0.254,0.384,,0.3
COR-L23,0.906,1.16,0.895,0.0642,0.0567,0.735,0.879,0.709,0.0481,0.052,0.492,0.383,0.408,0.294,0.21,0.191,0.22,0.195,0.194
COR-L 105,0.348,0.377,0.386,0.324,0.289,1.04,1.16,0.85,0.566,0.246,0.535,0.42,0.479,0.418,0.331,0.361,0.367,0.326,0.344
Calu-6,1.08,1.12,1.13,0.135,0.116,0.93,1.02,0.838,0.174,0.102,,,,,,,,,
ChaGo-K-1,,,,,,,,,,,0.624,0.441,0.475,0.42,0.24,0.222,0.222,0.209,0.246
EBC-1,0.228,0.203,0.208,0.169,0.144,0.7,0.792,0.259,0.112,0.13,,,,,,,,,
EKVX,0.221,0.416,0.212,0.183,0.137,0.845,1.06,0.953,0.837,0.363,0.268,0.243,0.221,0.248,0.392,0.398,0.426,0.349,0.405
EMC-BAC-2,0.89,0.958,0.879,0.843,0.471,0.699,0.733,0.757,0.758,0.326,0.558,0.504,0.558,0.437,0.326,0.281,0.304,0.285,0.275
EPLC-272H,0.804,1.47,1.06,0.298,0.0991,0.884,1.03,0.83,0.141,0.106,0.389,0.298,0.289,0.338,0.204,0.26,0.385,0.232,0.306
H3255,0.252,0.338,0.259,0.225,0.296,0.749,0.886,0.723,0.494,0.154,0.435,0.342,0.38,0.385,0.71,0.637,0.791,0.599,0.655
HARA,0.817,0.911,0.882,0.0695,0.0699,0.79,0.857,1.07,0.0576,0.0587,0.584,0.398,0.36,0.36,0.106,0.079,0.1,,0.116
